Patent publication US20240350494A1, “THERAPEUTIC MODULATION OF INTEGRINS” (Pliant Therapeutics, Inc., priority 2021, published 2024)

Assays:
[1] = tested on: lung Col1a1 expression; experiment: Precision cut lung slices, chronic bleomycin exposure, Col1a1 expression; type: cell-based, mice (C57BL/6); settings: 7 days culture, ALK5 inhibitor at 10× IC50; for lung slice Col1a1 expression compared to DMSO vehicle control slices: nintedanib and pirfenidone at 10× therapeutic concentrations, FIG. 4A
Description: (§1) Mice (C57BL/6) were administered 3 U/kg of bleomycin (Teva Pharmaceuticals; North Wales, PA) on Day 0 and 1 U/kg of bleomycin on days 14, 28, 42 and 56 via oropharyngeal aspiration while under anesthesia. At day 70, 14 days after the final bleomycin insult, precision cut lung slices were obtained. Following euthanization, 2% low gelling temp agarose was injected into the mouse lungs via the trachea. […] The lobes were then subjected to precision slicing to obtain samples for culture using a microtome (Compresstome VF-300-OZ, Precisionary; Greenville, NC). Individual slices were distributed in a multiwell culture plate and cultured for 7 days under control (DMSO) and test compound conditions. The viability of the slices over the course of culturing was confirmed by WST-1 assay of mitochondrial activity.
During the culture period, slices in the control group were treated with DMSO and slices in the test group were treated with a DMSO solution of one of: the selective antibody αVβ6 inhibitor 3G9; the αVβ1-selective small molecule inhibitor; a combination of the selective antibody αVβ6 inhibitor 3G9 and the αVβ1-selective small molecule inhibitor; compound 5; and the small molecule ALK5 inhibitor. The selective αVβ1 and αVβ6 integrin inhibitors were analyzed at ≥their respective IC90 concentrations for inhibition of TGF-beta activation. Compound 5 was run at approximate IC50 for inhibition of TGF-beta activation by αVβ6.
as §1, with “following” for “after”
During the culture period, slices in the control group were treated with DMSO and slices in the test group were treated with a DMSO solution of one of: compound 5; nintedanib; pirfenidone; a combination of nintedanib and compound 5; a combination of pirfenidone and compound 5; or the small molecule ALK5 inhibitor. Compound 5 was […] effective to equal or exceed its respective IC50 values at αVβ6 and αVβ1. […] Nintendanib and pirfenidone were analyzed at concentrations 10× their reported therapeutic concentrations.

[2] = tested on: Type I Collagen gene Col1a1 expression; experiment: Precision cut lung slices, acute bleomycin exposure, Col1a1 expression; type: cell-based, mice (C57BL/6); settings: for Type I Collagen gene Col1a1 expression, normalized to DMSO control slices: 3 days culture, integrin inhibitors at IC50 for TGF-beta activation, pan-αV and ALK5 inhibitors at 10× reported IC50, FIG. 3A
Description: Mice (C57BL/6) were administered 3 U/kg of bleomycin (Teva Pharmaceuticals; North Wales, PA) on day 0 via oropharyngeal aspiration while under anesthesia. On day 14, precision cut lung slices were obtained. Following euthanization, 2% low gelling temp agarose was injected into the mouse lungs via the trachea. […] The lobes were then subjected to precision slicing to obtain samples for culture using a microtome (Compresstome VF-300-OZ, Precisionary; Greenville, NC). Individual slices were distributed in a multiwell culture plate and cultured for 3 days under control (DMSO) and test compound conditions.

[3] = tested on: COL1A1 expression; experiment: Precision cut lung slices from human IPF explants, COL1A1 expression; type: cell-based; settings: for COL1A1 expression, treatment alone: PCLS from 5-7 IPF samples, seven days, nintedanib 75 nM, pirfenidone 50 μm
Excerpt: Explanted lung tissue was obtained from human IPF subjects and inflated with agarose as described in the preceding examples. Biopsy cores were obtained from the agarose-inflated lung tissue. The biopsy cores were subjected to precision slicing to obtain several hundred μm thick. Individual slices were distributed in a multiwell culture plate and cultured for […] under control (DMSO) and test compound conditions. The viability of the slices over the course of culturing was confirmed by WST-1 assay of mitochondrial activity.
PCLS from 5-7 idopathic pulmonary fibrosis (IPF) lung tissue samples were cultured for seven days with one of: DMSO; Compound 5 at 200 nM; nintedanib at 75 nM; pirfenidone at 50 μm; a combination of Compound 5 at 200 nM and nintedanib at 75 nM; a combination of Compound 5 at 200 nM and pirfenidone at 50 μm; or an Alk5 inhibitor at 1 μm. […] FIG. 4D is a bar graph showing relative expression of COL1A1 in precision cut lung slices (PCLS) from idopathic pulmonary fibrosis (IPF) lung tissue upon exposure to Compound 5, clinical standard of care compounds nintedanib (Nin) and pirfenidone (Pirf), and an ALK5 inhibitor, all versus DMSO control.
PCLS from a single IPF lung tissue sample were cultured for seven days with Compound 5 at concentrations of 200 μM, 2 nM, 60 nM, 200 nM, and 1 μM, along with 0.1% DMSO control and an Alk5 inhibitor at 1 μM. […] COL1A1 expression is also graphed for the PCLS in the presence of 0.1% DMSO control, and an Alk5 inhibitor at 1 μM.

| SMILES | lung Col1a1 expression, normalized to DMSO control slices ([1]; Compound 5 at approximate IC50 (αVβ6), selective inhibitors at ≥IC90, FIG. 3B) | lung slice Col1a1 expression compared to DMSO vehicle control slices [1] | Type I Collagen gene Col1a1 expression, normalized to DMSO control slices [2] | lung Col1a1 expression, normalized to DMSO control slices ([3]; human IPF slices, 3 days, 3G9 ≥400 ng/mL, compound 5 179 nM, ALK5 inhibitor 1 μM, FIG. 4C) | increase in concentration over compound 5 needed to reduce lung slice Col1a1 expression by 50% ([2]; acute bleomycin injured lung slices, FIG. 4B) | COL1A1 expression, treatment alone [3] |
| --- | --- | --- | --- | --- | --- | --- |
| Cc1cccc(-c2n[nH]cc2-c2ccc(F)c(-c3cnn(CCO)c3)c2)n1 [small molecule ALK5 inhibitor, 4-[2-Fluoro-5-[3-(6-methyl-2-pyridinyl)-1H-pyrazol-4-yl]phenyl]-1H-pyrazole-1-ethanol] | greatest decrease | substantial, statistically significant (p<0.0001 vs vehicle) decrease | greatest decrease | substantial, statistically significant |  |  |
| COC(=O)c1ccc2c(c1)NC(=O)/C2=C(\Nc1ccc(N(C)C(=O)CN2CCN(C)CC2)cc1)c1ccccc1 [nintedanib] |  | slight increase |  |  | 5.2 fold | did not significantly reduce |
| Cc1ccc(=O)n(-c2ccccc2)c1 [pirfenidone] |  | slight increase |  |  |  | did not significantly reduce |
| CC(C)(C)c1cc(Br)cc([C@H](CC(=O)O)NC(=O)CNC(=O)c2cc(O)cc(NC3=NCC(O)CN3)c2)c1 (stereo partly drawn) [second pan-αV small molecule inhibitor, (3S)—N-[3-hydroxy-5-[(1,4,5,6-tetrahydro-5-hydroxy-2-pyrimidinyl)amino]benzoyl]glycyl-3-[3-bromo-5-(1,1-dimethylethyl)phenyl]-β-alanine] |  |  | decreased Type I Collagen gene Col1a1 expression comparably |  |  |  |
